Results taken from patent US20210045385A1, “PYRIDAZINONE-SUBSTITUTED KETOXIMES AS HERBICIDES” (FMC Corporation, priority 2018, published 2021).

How the values were obtained:
Assay type in all cases: in vivo
[1] = system: foxtail, green (green foxtail, Setaria viridis); assay: Test C preemergence, visual plant response rating; conditions: 500 g ai/ha
In short: (§1)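 Compounds in a non-phytotoxic solvent with surfactant were applied as a directed soil spray preemergence or to 2–10 cm, one- to two-leaf plants postemergence, in loam–sand soil. After about 10 d in a greenhouse, injury was visually rated against untreated controls on a 0–100 scale (100 = complete control).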

[2] = system: barnyardgrass (Echinochloa crus-galli); assay: Test C preemergence, visual plant response rating; conditions: 500 g ai/ha
In short: as §1

[3] = system: Italian ryegrass (Lolium mutiflorum); assay: Test C preemergence, visual plant response rating; conditions: 500 g ai/ha
In short: as §1

[4] = system: pigweed (Amaranthus retroflexus); assay: Test C preemergence, visual plant response rating; conditions: 500 g ai/ha
In short: as §1

kochia (Bassia scoparia) [5] = assay: Test C preemergence, visual plant response rating; conditions: 500 g ai/ha
In short: as §1

[6] = system: ragweed (common ragweed, Ambrosia artemisiifolia); assay: Test C preemergence, visual plant response rating; conditions: 500 g ai/ha
In short: as §1

[7] = system: foxtail, green (green foxtail, Setaria viridis); assay: Test C postemergence, visual plant response rating; conditions: 500 g ai/ha
In short: as §1

[8] = system: barnyardgrass (Echinochloa crus-galli); assay: Test C postemergence, visual plant response rating; conditions: Test C, postemergence, 500 g ai/ha
In short: as §1

corn (Zea mays) [9] = assay: Test C postemergence, visual plant response rating; conditions: Test C, postemergence, 500 g ai/ha
In short: as §1

[10] = system: Italian ryegrass (Lolium mutiflorum); assay: Test C postemergence, visual plant response rating; conditions: Test C, postemergence, 500 g ai/ha
In short: as §1

[11] = system: pigweed (Amaranthus retroflexus); assay: Test C postemergence, visual plant response rating; conditions: Test C, postemergence, 500 g ai/ha
In short: as §1

[12] = system: wheat (Triticum aestivum); assay: Test C postemergence, visual plant response rating; conditions: Test C, postemergence, 500 g ai/ha
In short: as §1

[13] = system: blackgrass (Alopecurus myosuroides); assay: Test C postemergence, visual plant response rating; conditions: Test C, postemergence, 500 g ai/ha
In short: as §1

kochia (Bassia scoparia) [14] = assay: Test C postemergence, visual plant response rating; conditions: Test C, postemergence, 500 g ai/ha
In short: as §1

[15] = system: ragweed (common ragweed, Ambrosia artemisiifolia); assay: Test C postemergence, visual plant response rating; conditions: Test C, postemergence, 500 g ai/ha
In short: as §1

[16] = system: foxtail, green (green foxtail, Setaria viridis); assay: Test A preemergence, visual plant response rating; conditions: approx. 10 days
In short: (§2)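 Ratings 0–100 (100 = complete control), visual, vs untreated controls at ~10 days. Application pre- or postemergence; solvent mixture with surfactant; loam/sand medium.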

kochia (Kochia scoparia) [17] = assay: Test A preemergence, visual plant response rating; conditions: approx. 10 days
In short: as §2

[18] = system: barnyardgrass (Echinochloa crus-galli); assay: Test A preemergence, visual plant response rating; conditions: approx. 10 days
In short: as §2

[19] = system: ragweed (common ragweed, Ambrosia elatior); assay: Test A preemergence, visual plant response rating; conditions: approx. 10 days
In short: as §2

[20] = system: Italian ryegrass (Lolium multiflorum); assay: Test A preemergence, visual plant response rating; conditions: approx. 10 days
In short: as §2

[21] = system: pigweed (Amaranthus retroflexus); assay: Test A preemergence, visual plant response rating; conditions: approx. 10 days
In short: as §2

[22] = system: foxtail, green (green foxtail, Setaria viridis); assay: Test A postemergence, visual plant response rating
In short: as §2

kochia (Kochia scoparia) [23] = assay: Test A postemergence, visual plant response rating
In short: as §2

[24] = system: barnyardgrass (Echinochloa crus-galli); assay: Test A postemergence, visual plant response rating
In short: as §2

corn (Zea mays) [25] = assay: Test A postemergence, visual plant response rating
In short: as §2

[26] = system: ragweed (common ragweed, Ambrosia elatior); assay: Test A postemergence, visual plant response rating
In short: as §2

[27] = system: galium (catchweed bedstraw, Galium aparine); assay: Test A postemergence, visual plant response rating
In short: as §2

[28] = system: Italian ryegrass (Lolium multiflorum); assay: Test A postemergence, visual plant response rating
In short: as §2

[29] = system: pigweed (Amaranthus retroflexus); assay: Test A postemergence, visual plant response rating
In short: as §2

[30] = system: wheat (Triticum aestivum); assay: Test A postemergence, visual plant response rating
In short: as §2

[31] = system: blackgrass (Alopecurus myosuroides); assay: Test A postemergence, visual plant response rating
In short: as §2

[32] = system: barnyardgrass (Echinochloa crus-galli); assay: Test B flooded paddy test, visual plant response rating; conditions: 250 g ai/ha, Flood, applied to paddy water, 2-leaf stage, evaluated after 13 to 15 days
In short: (§3)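 Visual scores compare treated plants with controls after 13 to 15 days of greenhouse growth. Treatment was made into paddy water standing 3 cm above the soil, with plants at the 2-leaf stage and flooding maintained throughout.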

[33] = system: sedge, umbrella (small-flower umbrella sedge, Cyperus difformis); assay: as above; conditions: 250 g ai/ha, Flood, applied to paddy water, 2-leaf stage, evaluated after 13 to 15 days
In short: as §3

rice (Oryza sativa) = assay: as above; conditions: 250 g ai/ha, Flood, applied to paddy water, 2-leaf stage, evaluated after 13 to 15 days
In short: as §3

[34] = system: ducksalad (Heteranhera limosa); assay: as above; conditions: 250 g ai/ha, Flood, applied to paddy water, 2-leaf stage, evaluated after 13 to 15 days
In short: as §3

[35] = 500 g ai/ha, postemergence, 0 is no effect, 100 is complete control
[36] = Postemergence, 125 g ai/ha, 0 to 100 scale (0 no effect, 100 complete control)

Cc1nn(C)c(=O)c(/C(=N/OCc2ccccc2)c2cccc(Cl)c2)c1O [Compound 150]
20: Ragweed plant response rating (0 to 100 scale) [15]
0: Foxtail, Green plant response rating (0 to 100 scale) [1] | Barnyardgrass plant response rating (0 to 100 scale) [2] | Ryegrass, Italian plant response rating (0 to 100 scale) [3] | Pigweed plant response rating (0 to 100 scale) [4] | Kochia plant response rating (0 to 100 scale) (kochia (Bassia scoparia) [5]) | Foxtail, Green plant response rating (0 to 100 scale) [7] | Barnyardgrass plant response rating (0 to 100 scale) [8] | Corn plant response rating (0 to 100 scale) (corn (Zea mays) [9]) | Pigweed plant response rating (0 to 100 scale) [11] | Wheat plant response rating (0 to 100 scale) [12] | Blackgrass plant response rating (0 to 100 scale) [13] | Kochia plant response rating (0 to 100 scale) (kochia (Bassia scoparia) [14])
80: Ragweed plant response rating (0 to 100 scale) [6]
10: Ryegrass, Italian plant response rating (0 to 100 scale) [10]

CCO/N=C(/c1cccc(Cl)c1)c1c(O)c(C)nn(C)c1=O [Compound 9]
50: Barnyardgrass plant response rating (0 to 100 scale) ([18]; 500 g ai/ha Preemergence)
60: Kochia plant response rating (0 to 100 scale) (kochia (Kochia scoparia) [17]; 500 g ai/ha Preemergence) | Kochia plant response rating (0 to 100 scale) (kochia (Kochia scoparia) [23]; [35]) | Ryegrass, Italian plant response rating (0 to 100 scale) [28, 35]
0: Barnyardgrass plant response rating (0 to 100 scale) ([18]; 125 g ai/ha Preemergence) | Barnyardgrass plant response rating [24, 36] | Corn plant response rating (corn (Zea mays) [25]; [36]) | Pigweed plant response rating [29, 36] | Wheat plant response rating (0 to 100 scale) [30, 35] | Wheat plant response rating [30, 36] | Blackgrass plant response rating [31, 36] | Plant response rating, Barnyardgrass (0 to 100 scale, 0 is no effect, 100 is complete control) [32] | Plant response rating, Sedge, Umbrella (0 to 100 scale, 0 is no effect, 100 is complete control) [33] | Plant response rating, Rice (0 to 100 scale, 0 is no effect, 100 is complete control) (rice (Oryza sativa)) | Plant response rating, Ducksalad (0 to 100 scale, 0 is no effect, 100 is complete control) [34]
90: Ragweed plant response rating (0 to 100 scale) ([19]; 500 g ai/ha Preemergence) | Pigweed plant response rating (0 to 100 scale) ([21]; 500 g ai/ha Preemergence) | Galium plant response rating (0 to 100 scale) [27, 35]
10: Kochia plant response rating (0 to 100 scale) (kochia (Kochia scoparia) [17]; 125 g ai/ha Preemergence) | Foxtail, Green plant response rating [22, 36] | Kochia plant response rating (kochia (Kochia scoparia) [23]; [36]) | Corn plant response rating (0 to 100 scale) (corn (Zea mays) [25]; [35])
40: Foxtail, Green plant response rating (0 to 100 scale) ([16]; 500 g ai/ha Preemergence) | Ryegrass, Italian plant response rating (0 to 100 scale) ([20]; 500 g ai/ha Preemergence) | Pigweed plant response rating (0 to 100 scale) ([21]; 125 g ai/ha Preemergence) | Ryegrass, Italian plant response rating [28, 36]
80: Ragweed plant response rating (0 to 100 scale) ([19]; 125 g ai/ha Preemergence) | Ragweed plant response rating (0 to 100 scale) [26, 35] | Galium plant response rating [27, 36]
20: Foxtail, Green plant response rating (0 to 100 scale) ([16]; 125 g ai/ha Preemergence) | Ryegrass, Italian plant response rating (0 to 100 scale) ([20]; 125 g ai/ha Preemergence) | Barnyardgrass plant response rating (0 to 100 scale) [24, 35] | Pigweed plant response rating (0 to 100 scale) [29, 35] | Blackgrass plant response rating (0 to 100 scale) [31, 35]
30: Foxtail, Green plant response rating (0 to 100 scale) [22, 35] | Ragweed plant response rating [26, 36]
